row,melting point [°C],SMILES
1,60 to 69,CC(Cc1c[nH]c2ccccc12)(NCc1cc2ccccc2o1)C(=O)NCc1cccc(O)c1 (stereo not drawn)
2,91 to 93,O=C(Cn1nnnc1-c1ccoc1)OCCO
3,78,COc1ccc(CN(CCN(C)CCCCCCNC(=S)NCCSCc2csc(NC(=N)N)n2)c2ccccn2)cc1
4,86 to 89,CCCCCCCCCCCCCCCCNc1ccc(C(=O)OCC2CO2)cc1 (stereo not drawn)
5,118 to 120,COc1cccc(OC(c2ccccc2)C(O)C(=O)NC(C)C)c1 (stereo not drawn)
6,149,COC(C)(OC)c1nn(-c2c(Cl)cc(C(F)(F)F)cc2Cl)c(N)c1SC
7,317 to 318,O=C(O)c1cc2ccc(Cl)cc2[nH]c1=O
8,134,CCCN(CCCc1c[nH]c2ccc(F)cc12)C1COc2c(ccc3ncccc23)C1 (stereo not drawn)
9,152 to 154,OC(CCN1CCC(c2ccc(Cl)cc2)CC1)c1ccc(Cl)cc1 (stereo not drawn)
10,171 to 172,O=C(O)c1cc(C(F)(F)F)ccc1I
11,91 to 92,CCOC(=O)C(C)Oc1ccc(N(C)c2nc3ccc(Br)cc3o2)cc1 (stereo not drawn)
12,244 to 246,NC(=O)c1c(F)ccc(OCc2nc3cc(Br)ccc3s2)c1F
13,190 to 192,Cc1cccc(N2Cc3ccccc3P2(=O)c2ccccc2)c1 (stereo not drawn)
14,244 to 245,c1cc(-c2ccnc3nccn23)ccn1
15,172 to 174,Cn1cc([C@H]2CC[C@@H](N3CCN(c4cc(C=O)cc5cccnc45)CC3)CC2)c2cc(C#N)ccc21
16,98 to 100,C=Cc1ccc2c(c1)CC(CNC(=O)OC(C)(C)C)CC2 (stereo not drawn)
17,91 to 96,CC(C(=O)O)c1ccc2[nH]ncc2c1 (stereo not drawn)
18,162 to 164,COc1ccc2c(c1)CCc1cn[nH]c1-2
19,130 to 132,Cc1ccc(CCC(=O)c2ccc(N3CCN(c4ccncc4)CC3)cc2)cc1
20,204 to 206,CC1=NN=C(c2ccc([N+](=O)[O-])cc2)c2cc3c(cc2C1)OCCOC3
21,164,OCCOCCn1c(NC2CCNCC2)nc2ccccc21
22,119 to 120,OCc1nc(/C=C/c2ccccc2)ns1
23,78 to 80,COC(=O)NCC1CN(c2ccc(-n3cnc(Cn4ccnc4)c3)c(F)c2)C(=O)O1 (stereo not drawn)
24,70 to 73,C#CC1(Oc2ccc(F)cc2[N+](=O)[O-])CCN(C)CC1
25,185,CNC(=O)c1ccccc1Nc1nc(Nc2ccc3c(c2)CCOCC3)ncc1Cl
26,202 to 203,NS(=O)(=O)c1ccccc1S(=O)(=O)NC1CC1

row,melting point [°C],SMILES
1,144 to 149,CC(=O)NC(CCCCCCCCC(NC(C)=O)C1CCCCCCC1)C1CCCCCCC1 (stereo not drawn)
2,59 to 62,CN(C)CCCNc1ncc2c(n1)-c1ccccc1C(c1ccc(Cl)c(Cl)c1)C2 (stereo not drawn)
3,94 to 98,CCOC(=O)/C=C/c1cn(C)c2ccccc12
4,121 to 123,N#Cc1cc(Cl)c(N)c(I)c1
5,127 to 128,N#CC(C#N)=C1N(CCN2CCCCC2)c2ccccc2N1CCN1CCCCC1
6,208 to 209,CCCc1nc2c(N)nc3ccccc3c2n1CCc1cc(-c2ccc(F)cc2)no1
7,144 to 145,BrCc1ccc(-c2cnn(-c3ccc(CBr)cc3)n2)cc1
8,257 to 259,O=C(NC1CC1)c1ccccc1SSc1ccccc1C(=O)NC1CC1
9,113,CCN1CCN(CCCN2CC[C@H](NC(=O)c3cc(Cl)c(N)cc3OC)[C@H](OC)C2)C1=O (relative stereo)
10,133 to 142,NS(=O)(=O)c1cc(C(O)CN(Cc2ccccc2)Cc2ccccc2)ccc1N1CCCCC1 (stereo not drawn)
11,239 to 240,O=c1[nH]cnc2cccc(Br)c12
12,243 to 245,Cc1cc(-c2c(-c3ccc(S(N)(=O)=O)cc3)cnn(-c3ccc(F)c(F)c3)c2=O)ccc1F
13,226 to 227,"CC(C)(Sc1ccc(-n2cncn2)nn1)C(O)(Cn1cncn1)c1ccc(F)cc1F (single isomer, unassigned; (+))"
14,165 to 167,O=C(O)C(Cc1ccccc1)Oc1ccc(-c2ccc(-c3c(Cc4ccccc4)sc4ccccc34)cc2)cc1 (stereo not drawn)
15,49 to 52,CC1(C)Sc2ccccc2C(Cl)=C1C=O
16,115 to 117,COc1ccc(C#N)cc1C(C)(C)C=O
17,71 to 72,CCOC(=O)Cc1c(C)nn(-c2ccc(OC)cc2)c1C
18,256 to 258,CCc1cc2c(s1)SCCc1cc(=O)[nH]nc1-2
19,174 to 177,C[C@@H]1Cc2ccsc2[C@H](C)N1CCNC(=O)c1ccc(NC(=O)C(F)(F)F)cc1 (relative stereo)
20,111 to 121,CC(CN1C(=O)c2ccccc2C1=O)OS(C)(=O)=O (stereo not drawn)
21,205 to 206,NC(=O)c1c(N2CCN(Cc3ccccc3)CC2)nn2c(-c3ccncc3)ccnc12
22,165 to 166,N#CCCNC(=O)c1cccc(-c2cccc3nn(Cc4ccccc4F)cc23)c1
23,186 to 187,N#CC(=NNc1c(Cl)cc(C(F)(F)F)cc1Cl)c1ccc(C#N)cc1
24,28 to 30,C=CCN(CC=C)C(=O)n1cnc(S(=O)(=O)CCCCC)n1
25,177,Cc1ncc([N+](=O)[O-])n1CCN1C(=O)c2ccccc2C1=O
26,149 to 150,O=C1NC(=O)N(Cc2ccc(Cl)cc2)C1O (stereo not drawn)

row,melting point [°C],SMILES
1,77 to 79,Clc1nc(Cl)c2c(n1)CCC2
2,167 to 171,COC(=O)c1c(C(=O)O)c(O)c2cc(OC)c(OC)c(OC)c2c1-c1cc(OC)c(OC)c(OC)c1
3,114 to 117,COc1ccc(C=O)c(O)c1Cl
4,225 to 226,O=C1CC2(CCOc3ccc(Cl)cc32)C(=O)N1 (stereo not drawn)
5,187,CCOC(=O)c1ccccc1NC(=O)CN1C(=O)c2ccccc2C1=O
6,167 to 170,O=C(Nc1n[nH]c(=S)s1)NC(Cc1ccccc1)C(=O)NCc1ccccc1 (stereo not drawn)
7,214 to 215,N=C(NS(=O)(=O)c1ccc(F)cc1)N1CC(c2ccccc2)C(c2ccc(Cl)cc2)=N1 (stereo not drawn)
8,156 to 158,N#Cc1ccc(Cl)cc1OCC(O)CNc1ccccc1OC1CC=NNC1=O (stereo not drawn)
9,227 to 229,Cn1nc(C(=O)NCc2ccc(Cl)cc2)c(=O)c2cc(C#CCCO)ccc21
10,187 to 190,O=C1OC(=O)c2c(Cl)ccc(Cl)c21
11,131 to 134,O=C(O)CCCc1cc2cc(Cl)ccc2n1S(=O)(=O)c1ccc2c(c1)OCCO2
12,135 to 142,Cc1noc(NS(=O)(=O)c2ccccc2-c2ccc(-c3ncco3)cc2CN2Cc3ccccc3C2=O)c1C
13,162 to 163,c1nc(SC2CCCCC2)c2cc[nH]c2n1
14,137 to 138,CC(=O)C(=Cc1ccc2c(c1)OCO2)C(=O)OCc1ccccc1
15,200 to 202,COC(=O)Cn1c(=O)n(C)c(=O)n(-c2cc(Oc3c(Cl)ccc(C)c3Cl)ccc2[N+](=O)[O-])c1=O
16,60,CSC(SC)=C(C(=O)C(C)(C)C)n1cncn1
17,197 to 198,CC(C)C(=O)N[C@H]1C[C@H](C(=O)O)Nc2cc(Cl)cc(Cl)c21 (relative stereo)
18,89 to 90,CCN(CC)C(=O)NCCOC(=O)c1cc(Oc2ccc(C(F)(F)F)cc2Cl)ccc1[N+](=O)[O-]
19,56 to 60,CC(C)c1ccc(CCOc2ccnc3c(F)cccc23)cc1
20,134 to 140,Cc1c(C=O)c2c(c(C)c1NC(=O)CC(C)(C)C)C(c1ccc(C(C)C)cc1)CS2 (stereo not drawn)
21,176,COc1cc(-n2c(I)nnc2I)ccc1C
22,73 to 74,c1ccc(C2CCNCc3ccccc3O2)cc1 (stereo not drawn)
23,295 to 297,Cc1cc(C(=N)NO)ccc1-c1cccc(-c2nc3cc(C(=N)NO)ccc3[nH]2)c1
24,168 to 174,C#CCN1CCN(C2Cc3ccc(C)cc3Sc3ccc(F)cc32)CC1 (stereo not drawn)
25,234,O=C(Nc1cc(C2CC2)n[nH]1)c1ccccc1
26,118 to 120,Nc1nc2ccccc2c2c1nc(-c1ccccc1)n2CCCCNC(=S)Nc1cccnc1

row,melting point [°C],SMILES
1,165 to 167,COc1ccccc1-c1cn(-c2ccccc2)nc1O
2,94 to 95,CC(C)N(C(=O)n1oc(=O)[nH]c1=O)c1ccc(F)cc1
3,144 to 145,O=C1c2ccccc2C(O)N1CCCCSc1ccncc1 (stereo not drawn)
4,104 to 106,CC1(C)C(N)C(C)(C)S1(=O)=O
5,162,ClCCCOc1cc(Cl)c(OCCCCl)cc1Cl
6,172,CC(=O)N1CCN(CCOC2c3ccccc3C(=O)N2c2ccc3ccc(Cl)nc3n2)CC1 (stereo not drawn)
7,165 to 166,Cc1cc(C)cc(C(=O)/C=C/c2nc[nH]c2C)c1
8,109 to 110,CCC([O-])=C(C(=O)OC)N1C(=O)CC1[N+](CC)(CC)CC (stereo not drawn)
9,112,CCN(CC)CCNC(=O)c1nc(Cl)c(NCCN(CC)CC)nc1OC
10,219 to 220,O=c1c2cc(F)c(N3CCCC3)nc2n(Cc2ccccc2)c(=O)n1O
11,217 to 221,O=C(O)Cn1c(=O)sc2ccc(O)cc21
12,187,O=C(Cc1ccc2c(c1)OCO2)N[C@H]1CC[C@H](CCN2CCN(c3nccc4c3OCC4)CC2)CC1
13,128,CCCCc1sc2ccccc2c1C(=O)c1ccc(NS(=O)(=O)c2ccc(C)cc2)cc1
14,116,COc1ccc(-c2ccc(NN)nn2)cc1OC(C)C
15,86 to 89,CCCCOCCC(C)CCCC(C)(C)c1cc(O)c(C(C)(C)CCCC(C)CCOCCCC)cc1O (stereo not drawn)
16,162 to 166,O=C(c1ccc(Cl)cc1)c1ccccc1N=C=S
17,110,CCON=C(C)C(C)=NOc1ncccc1C(=NOC)C(=O)NC
18,115 to 117,CCc1onc(-c2ccccc2)c1C(=O)NCCCN1CCN(c2ccc(F)cc2OCC(F)(F)F)CC1
19,140 to 142,CCOC(=O)c1c(N)[nH]c2cccc(Cl)c12
20,231 to 233,COc1ccc2[nH]c3c(c2c1)CCS(=O)(=O)CCC3
21,279 to 281,CCOC(=O)c1c[nH]c2nc(N3CCN(C(=O)OCC)CC3)c(F)cc2c1=O
22,17,CC1(C)C(C#N)C1(C)C
23,137 to 138,Cc1ncsc1C(O)c1cccc(N)c1 (stereo not drawn)

row,SMILES,melting point [°C]
1,CCc1cc(NC(=O)c2nnn(Cc3ccccc3)n2)c(O)c(C(C)=O)c1,159 to 161
2,CN(C)Cc1c[nH]c2c(F)cccc12,133 to 137

# Reference: a melting point compilation (Tetko et al.; mined from patent text by program, amines drawn as free bases though some values may be those of a salt)
